In PubChem BioAssay (NCI):
Values joined by “and” are separate entries in the source; they are usually repeats but may differ in a detail not shown here. Equal values may be shown once.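 In this assay, cells in 96-well plates receive the compound at five concentrations for 48 hours. Endpoints are linearly interpolated between the surrounding concentrations. GI50 = concentration required for 50% inhibition of growth. TGI denotes the concentration required for complete inhibition of growth.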

Assays:
Assay in all cases: NCI-60 cell line screen, 48 h
[1] = tested on: HT29 colon
[2] = tested on: UO-31 renal
[3] = tested on: OVCAR-4 ovarian
[4] = tested on: COLO 205 colon
[5] = tested on: SK-OV-3 ovarian
[6] = tested on: HL-60(TB) leukemia
[7] = tested on: U251 CNS
[8] = tested on: NCI-H226 lung
[9] = tested on: NCI-H23 lung
[10] = tested on: T-47D breast

Row | SMILES | GI50 [1] | TGI [1] | GI50 [2] | TGI [2] | GI50 [3] | TGI [3] | GI50 [4] | TGI [4] | GI50 [5] | TGI [5] | GI50 [6] | GI50 [7] | TGI [7] | GI50 [8] | TGI [8] | GI50 [9] | TGI [9] | GI50 [10] | TGI [10] | TGI [6]
1 | Cc1c2ccncc2c(C)c2c1[nH]c1ccc(Cl)cc12 | 1.04 µM | 9.24 µM and 2.52 µM | 4.44 µM | 8.15 µM and 16.3 µM | 2.42 µM | 5.45 µM and 13.4 µM | 3.09 µM | 9.41 µM and 15 µM | 12.2 µM | 17.9 µM and 31.1 µM | 2.62 µM | 1.49 µM | 11.5 µM and 2.94 µM | 8.58 µM | 11 µM and 25.4 µM | 2.99 µM | 11.2 µM and 15 µM |  |  | 
2 | O=C(Nc1nc2ccccc2s1)c1cc(-c2ccc(F)cc2)n2nc(-c3ccccc3)cc2n1 |  |  |  |  |  |  |  |  | 2.3 µM | 5.56 µM | > 100 µM |  |  | 6.31 µM | > 100 µM | 2.81 µM | > 100 µM | 3.34 µM | > 100 µM | > 100 µM
3 | CC(=O)NC(CCCN(Cc1ccccc1)C(=O)N(C)N=O)C(=O)NCc1ccccc1 (stereo not drawn) |  | > 100 µM |  | > 100 µM |  | > 100 µM |  | > 100 µM |  | > 100 µM |  |  | > 100 µM |  | > 100 µM |  | > 100 µM |  |  | 
4 | Cc1ccc2nc(NC(=O)C(=O)CC(=O)c3cccc4ccccc34)sc2c1 |  | > 100 µM |  | > 100 µM |  | 32.1 µM |  | > 100 µM |  | 36.6 µM |  |  | 49.7 µM |  | > 100 µM |  | > 100 µM |  |  | > 100 µM
5 | c1ccc(-c2ccnc3c2ccc2c(-c4ccccc4)ccnc23)cc1 |  | 10.8 µM |  | 4.91 µM |  | 12.7 µM |  | 6.71 µM |  | 11.6 µM |  |  | 6.79 µM |  | 4.76 µM |  | 14.1 µM |  |  | 3.69 µM
6 | O=C1C=Cc2ncccc2C1=O |  | 43.4 µM |  | > 57.7 µM |  | 17.2 µM |  | 32.5 µM |  | > 61.7 µM |  |  | > 57.8 µM |  | > 58.7 µM |  | 39.6 µM |  |  | 36.1 µM
7 | [CH3][Sn]1([CH3])[O]CC(COc2cc(Cl)c(Cl)cc2Cl)[O]1 (stereo not drawn) | > 100 µM | > 100 µM | 71 µM | > 100 µM | > 100 µM | > 100 µM | > 100 µM | > 100 µM | 85.6 µM | > 100 µM | > 100 µM | > 100 µM | > 100 µM | 30.7 µM | > 100 µM | > 100 µM | > 100 µM |  |  | > 100 µM
8 | COC(=O)C(C(=O)C(N)=O)c1csc(-n2nc(-c3ccccc3)cc2-c2ccccc2)n1 (stereo not drawn) |  | > 100 µM |  | 28.9 µM |  | > 31.6 µM |  | > 31.6 µM |  | > 31.6 µM |  |  | > 31.6 µM |  | > 31.6 µM |  | > 100 µM |  |  | > 31.6 µM
9 | CSCCCNC(=O)[C@H](CSC)NC(=O)c1csc(CCNC(=O)[C@@H](NSc2ccccc2[N+](=O)[O-])C(C)O)n1 (stereo partly drawn) |  | > 100 µM |  | > 100 µM |  | > 100 µM |  | > 100 µM |  | > 100 µM |  |  | > 100 µM |  | > 100 µM |  | > 100 µM |  |  | > 100 µM
10 | NNC(=O)C(O)C(O)C(=O)NN (stereo not drawn) |  | > 100 µM |  | > 100 µM |  | > 100 µM |  | > 100 µM |  | > 100 µM |  |  | > 100 µM |  | > 100 µM |  | > 100 µM |  | > 100 µM | 
11 | C/C(=N\NS(=O)(=O)c1ccc([N+](=O)[O-])cc1)c1ccc[n+]([O-])n1 |  | 3.98 µM |  | 6.74 µM |  | 5.69 µM |  | 6.56 µM |  | 7.24 µM |  |  | 5.06 µM |  | 3.91 µM |  | 3.6 µM |  |  | > 22.6 µM
12 | N#CC(C(=O)CCCC(=O)Nc1ccc(Cl)cc1Cl)c1ccc(Cl)cc1 (stereo not drawn) |  | > 100 µM |  | > 100 µM |  | > 100 µM |  | > 100 µM |  | > 100 µM |  |  |  |  | > 100 µM |  | > 100 µM |  |  | > 100 µM
13 | Cn1nc(-c2ccccc2)c(C(=O)/C=C/c2ccc(Cl)cc2)c(N2CCCC2)c1=O |  | 15.3 µM |  | 21.5 µM |  |  |  | 4.07 µM |  | 18.8 µM |  |  | 15.5 µM |  |  |  | 10.6 µM |  |  | 4.97 µM
14 | CN=C(N)N/N=C(\C)c1ccc2c(c1)Cc1ccccc1-2 | 1.61 µM | 3.39 µM | 1.43 µM | 2.89 µM | 3.98 µM | 19.4 µM | 1.66 µM | 3.02 µM | 1.61 µM | 5.1 µM | 0.399 µM |  |  |  |  | 2.84 µM | 12.3 µM | 1.32 µM | 2.92 µM | 1.94 µM
15 | O=C(/C=C/C1C(=O)NC(=O)NC1=O)CC(=O)C(=O)Nc1cc(Cl)c(Cl)cc1Cl |  | > 100 µM |  | > 100 µM |  | > 100 µM |  | > 100 µM |  | > 100 µM |  |  | > 100 µM |  | > 100 µM |  | > 100 µM |  |  | > 100 µM
16 | CC1=CC(=O)NP(=O)(C23CC4CC(CC(C4)C2)C3)N1 (stereo not drawn) |  | > 100 µM |  | > 100 µM |  | > 100 µM |  | > 100 µM |  | > 100 µM |  |  | > 100 µM |  | > 100 µM |  | > 100 µM |  |  | > 100 µM
17 | CC(C)[Si](OCC1CC(C#N)OC(C)(C)O1)(C(C)C)C(C)C (stereo not drawn) |  | 37.5 µM |  | 40.9 µM |  | > 100 µM |  | 31.7 µM |  | 73.4 µM |  |  | 30 µM |  | 35 µM |  | 65.8 µM |  |  | 29.3 µM
18 | O=C(/C=C/c1ccccc1)CCC1C(=O)NC(=S)NC1=O |  |  |  | > 100 µM |  |  |  | > 100 µM |  | > 100 µM |  |  | > 100 µM |  | > 100 µM |  | > 100 µM |  | > 100 µM | 
19 | COc1ccc(NC(=O)C2C(=O)N(c3ccc(OC)cc3)C(=O)/C2=N\NC(N)=O)cc1 (stereo not drawn) |  | > 100 µM |  | 80.8 µM |  | 94.3 µM |  | > 100 µM |  | 49 µM |  |  | 35.4 µM |  | 51.7 µM |  | > 100 µM |  |  | 
20 | Cc1cc2nc(-c3c(F)cccc3Cl)n(Cc3c(F)cccc3Cl)c2cc1C | 10.5 µM | > 100 µM | 13.2 µM | 54.5 µM | 19 µM | 74.1 µM | 11.6 µM | 26.3 µM | 19.3 µM | 51.8 µM |  | 14.1 µM | 29.9 µM | 15 µM | 38.3 µM | 9.49 µM | 22.9 µM |  |  | 
21 | COc1ccc(C)cc1C1CCC(=O)O1 (stereo not drawn) |  | > 100 µM |  | > 100 µM |  |  |  | > 100 µM |  | > 100 µM |  |  | > 100 µM |  | > 100 µM |  | > 100 µM |  |  | > 100 µM
